From patent publication US20090304821A1, “Pharmaceutical Combination” (Takeda Pharmaceutical Company Limited, priority 2006, published 2009)

These compounds were tested against T1, human CaR (Homo sapiens, UniProt P41180) (assay: GTPγS binding assay on human CaR-expressing CHO cell membrane). Settings: 1 μM test compound, % of binding with 6 mM calcium only, compounds marked antagonist.
T1 construct: expressed in transfected cells; cDNA amplified from human kidney cDNA (TOYOBO); membrane fraction used
T1 sequence (P41180 20-1078): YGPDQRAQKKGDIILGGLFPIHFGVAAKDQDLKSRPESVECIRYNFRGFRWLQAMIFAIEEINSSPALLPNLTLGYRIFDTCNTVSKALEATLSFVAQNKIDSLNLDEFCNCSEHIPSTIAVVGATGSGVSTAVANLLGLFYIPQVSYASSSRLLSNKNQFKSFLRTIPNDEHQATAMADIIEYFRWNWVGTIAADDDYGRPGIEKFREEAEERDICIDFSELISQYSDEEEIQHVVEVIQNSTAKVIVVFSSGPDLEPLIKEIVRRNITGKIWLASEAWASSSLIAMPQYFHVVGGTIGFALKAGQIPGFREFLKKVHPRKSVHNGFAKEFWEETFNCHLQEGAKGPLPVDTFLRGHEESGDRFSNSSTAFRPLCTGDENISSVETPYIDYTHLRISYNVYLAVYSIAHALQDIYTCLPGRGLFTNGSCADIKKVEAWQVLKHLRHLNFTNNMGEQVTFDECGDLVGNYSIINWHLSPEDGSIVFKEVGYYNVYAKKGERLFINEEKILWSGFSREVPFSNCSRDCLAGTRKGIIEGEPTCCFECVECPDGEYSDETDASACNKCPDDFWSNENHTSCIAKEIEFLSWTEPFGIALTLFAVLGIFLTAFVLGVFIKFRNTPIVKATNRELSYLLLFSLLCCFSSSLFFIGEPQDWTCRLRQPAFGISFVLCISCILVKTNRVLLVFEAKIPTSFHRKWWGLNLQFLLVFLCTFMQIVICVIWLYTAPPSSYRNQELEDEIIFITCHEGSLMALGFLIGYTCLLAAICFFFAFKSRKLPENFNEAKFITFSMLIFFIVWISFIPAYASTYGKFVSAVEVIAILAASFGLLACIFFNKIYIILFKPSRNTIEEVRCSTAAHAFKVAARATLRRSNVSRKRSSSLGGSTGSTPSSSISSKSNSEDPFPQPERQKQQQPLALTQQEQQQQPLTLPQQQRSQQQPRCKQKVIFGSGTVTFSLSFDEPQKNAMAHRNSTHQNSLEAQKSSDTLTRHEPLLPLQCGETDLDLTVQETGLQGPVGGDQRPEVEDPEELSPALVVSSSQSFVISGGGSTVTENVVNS
Assay type: biochemical
Protocol: Preparation of Membrane Fraction is Described Bellow. The human CaR-expressing CHO cells were inoculated to a F500 flask in 1.8×10^5 cells/flask followed by cultivation for 2 days. The cells were scraped with 10 ml of Phosphate-Buffered Saline containing 0.02% EDTA. After centrifugation (2000 rpm, 10 min) of the cells, the cell pellet was resuspended into 12 ml of homogenate buffer solution (10 mM NaHCO3, 1 mM EDTA, 1× Protease inhibitor cocktail (pH 7.4)) and homogenized by Polytron™ (2000 rpm, 1 min). The cell debris was removed by centrifugation (2000 rpm, 10 min), and then the CaR-expressing cell membrane fraction was collected by ultracentrifugation (Beckman 70 Ti type rotor, 30000 rpm, 1 hour).
The GTPγS binding activity was measured as follows. Twenty μg of the CaR-expressing cell membrane was incubated with test compounds for 10 min. The assays were carried out at room temperature for an hour in a reaction mixture solution containing 20 mM HEPES (pH.7.4), 100 mM NaCl, 1 mM MgCl2, 167 μg/ml DTT, 5 μM guanosine 5′-diphosphate, 0.4 nM [^35S]-guanosine 5′-(γ-thio) triphosphate ([^35S]-GTPγS) and 6 mM CaCl2. The reaction mixture was filtered through a GF/C filter. After washing four times with 300 μl of Phosphate-Buffered Saline, the amount of [^35S]-GTPγS bound to the filter was measured using a Top-count scintillation counter.
Effects of test compounds on [^35S]-GTPγS binding were expressed in percentage terms. This was calculated from the equation [100×(t′−b)]/(t−b)]. Herein, t′, t and b are values of [^35S]-GTPγS binding (dpm), t′ is a value in the presence of 6 mM calcium and the test compound, t is a value in the presence of 6 mM calcium only and b is a value in the absence of both 6 mM calcium and the test compound.
In the case of `COc1ccc(C(CNC(=O)c2cnn3c2NC(c2ccccc2)CC3C(F)(F)F)c2ccccc2)cc1` (stereo not shown) [Test Compound 1, N-(2-(4-methoxyphenyl)-2-phenylethyl)-5-phenyl-7-(trifluoromethyl)-4,5,6,7-tetrahydropyrazolo[1,5-a]pyrimidine-3-carboxamide], the “[^35S]-GTPγS binding (%)” value is reported as 34 (1 μM) %.
`COc1ccc(C(NC(=O)c2cnn3c2NC(c2ccccc2)CC3C)c2ccc(OC)cc2)cc1` (stereo not shown) [Test Compound 2, N-(bis(4-methoxyphenyl)methyl)-7-methyl-5-phenyl-4,5,6,7-tetrahydropyrazolo[1,5-a]pyrimidine-3-carboxamide] was tested, and the “[^35S]-GTPγS binding (%)” value was 0 (1 μM) %.
`CCC(CC)(NC(=O)c1cnn2c1NC(c1ccccc1)CC2C(F)(F)F)c1ccc(C(F)(F)F)cc1` (stereo not shown) [Test Compound 3, N-(1-ethyl-1-(4-(trifluoromethyl)phenyl)propyl)-5-phenyl-7-(trifluoromethyl)-4,5,6,7-tetrahydropyrazolo[1,5-a]pyrimidine-3-carboxamide] was tested, and the “[^35S]-GTPγS binding (%)” value was 0 (1 μM) %.
For `Cc1ccc(C(OC2CCN(C(=O)c3cnn4c3NC(c3ccccc3)CC4C(F)(F)F)CC2)c2ccc(C)cc2)cc1` (stereo not shown) [Test Compound 4, 3-((4-(bis(4-methylphenyl)methoxy)-1-piperidinyl)carbonyl)-5-phenyl-7-(trifluoromethyl)-4,5,6,7-tetrahydropyrazolo[1,5-a]pyrimidine], the “[^35S]-GTPγS binding (%)” value was 10 (1 μM) %.
`CC1(C(F)(F)F)CC(c2ccccc2)Nc2c(C(=O)NC34CC5CC(CC(C5)C3)C4)cnn21` (stereo not shown) [Test Compound 5, N-(1-adamantyl)-7-methyl-5-phenyl-7-(trifluoromethyl)-4,5,6,7-tetrahydropyrazolo[1,5-a]pyrimidine-3-carboxamide] was tested, and the “[^35S]-GTPγS binding (%)” value was 12 (1 μM) %.
For `CCC(CC)(NC(=O)c1cnn2c1NC(c1ccccc1)CC2(C)C)c1ccc(-c2ccsc2)cc1` (stereo not shown) [Test Compound 6, N-(1-ethyl-1-(4-(3-thienyl)phenyl)propyl)-7,7-dimethyl-5-phenyl-4,5,6,7-tetrahydropyrazolo[1,5-a]pyrimidine-3-carboxamide], the “[^35S]-GTPγS binding (%)” value was 0 (1 μM) %.

Same assay, conditions: 10 μM test compound, % of binding with 6 mM calcium only, compound marked agonist
In the case of `O=C(NCC(c1ccccc1)N1CCCC1)c1cnn2c1NC(c1ccccc1)CC2C(F)(F)F` (stereo not shown) [Test Compound 7, 5-phenyl-N-(2-phenyl-2-(1-pyrrolidinyl)ethyl)-7-(trifluoromethyl)-4,5,6,7-tetrahydropyrazolo[1,5-a]pyrimidine-3-carboxamide], the “[^35S]-GTPγS binding (%)” value is reported as 256 (10 μM) %.
